The values below come from patent US20240261315A1 (Omikron Italia S.r.l., priority 2021, published 2024).

Data set [1] has as its system apoptotic cells in the GCL retinal layer. The data set can be described thus: TUNEL assay of cellular apoptosis in retina of db/db mice. The data set is classed as in vivo. Particulars: vs vehicle. From the text: (§1) The db/db mice have a mutation in the leptin receptor gene and they are an animal model of retinal neurodegeneration. Such model is useful to mime the pathophysiological events which are found in neurodegenerative pathologies such as glaucoma.
20 db/db […] (BKS.Cg-+Leprdb/+Leprdb/OlaHsd, males, 10 weeks) were randomized in 5 groups and treated for 15 days by oral route with oral solutions based on: • 1. Citicoline 0.5% (Cit.) in 10% lactose solution administered with nasogastric tube (SNG); • 2. […] 10% lactose solution (Placebo) administered with SNG; • 5. Healthy, non-diabetic control (Control).
(iv) The search for events of cellular apoptosis was performed through TUNEL assay by using the kit DeadEnd™ Fluorometric TUNEL System (PROMEGA, Madison, WI, USA). The TUNEL (Terminal Transferase dUTP Nick-End Labeling) colouring was performed by using the Kit system TUNEL Fluorometric DeadEnd (PROMEGA, Madison, WI, USA). Cryosections of retina were permeabilized by incubation for 2 minutes on ice with 0.1% Triton X-100 in 0.1% sodium citrate. The secondary antibody was Alexa 488 goat-anti-rabbit. For the evaluation by means of confocal laser scanning microscopy the excitation wavelength was 488 nm (detection in the range 515-565 nm (green)).

The test system of data set [2] is glial fibrillary acidic protein GFAP. The data set can be described thus: Glial activation, GFAP immunohistochemistry score in db/db mice. The data set is classed as in vivo.
Text: as §1
[…] Citicoline 0.5% (Cit.) in 10% lactose solution administered with nasogastric tube (SNG); • 2. […] 10% lactose solution (Placebo) administered with SNG; • 5. Healthy, non-diabetic control (Control).
Through immunohistochemical assays, neurodegeneration histological markers were researched (glial activation and apoptosis):
(iii) The glial activation was evaluated by means of confocal laser scanning microscopy by using antibodies directed to the glial fibrillary acidic protein GFAP (anti-GFAP of rabbit). To evaluate the level of glial activation a scoring system (from 1 to 5) was used based upon the extension of GFAP (glial fibrillary acidic protein) colouring.
The sections were fixed in methanol (−20° C.) for 2 minutes, followed by three washing with saline phosphate buffer PBS (5 minutes each one). The sections were treated with Tris Saline Buffer TBS-Triton X-100 (0.025%) and incubated in a 1% solution of bovine albumin serum BSA and 10% goat serum in PBS for 2 hours at room temperature. The sections were then incubated with anti-GFAP of rabbit overnight at 4° C. in humid atmosphere. After three washing in PBS, 5 minutes each one, the sections were incubated with the secondary antibody Alexa AF488 goat-anti-rabbit (dilution 1:200 prepared in blocking solution). The sections were washed in PBS, coloured with Hoestch and assembled with means Flourescence Mounting Medium with a cover glass. Once the mounting support has dried up, comparative digital images of the samples were recorded with a confocal laser scanning microscope Fluoview FV 1000 Olympus (Olympus, Shinjuku, Tokyo, Japan) by using identical brightness and contrast settings.

The conditions of data set [3]: in five days; cited from earlier work.
The test system of data set [4] is patients with controlled IOP. The conditions noted are these: oral citicoline, patients with IOP <18 mmHg on b-blockers; cited from earlier work.
Data set [5] deals with glaucomatous patients. The conditions noted are these: cited from earlier work.
Data set [6] concerns glaucomatous patients. Particulars: citicoline intramuscularly, 10-year follow-up; cited from earlier work.

For the compound `NC(=O)c1cccnc1` [Nicotinamide], in data set [1], the “apoptosis in GCL retinal layer (TUNEL)” value is listed as “lower apoptosis levels than the diabetic mice treated with the vehicle but with not statistically significant levels”. In addition, in data set [2], the “GFAP score 1, share of mice” value is on record as 72%; the “GFAP score 2, share of mice” value is reported as 18%; the “GFAP score 3, share of mice” value is given as 10%; the “GFAP score 4, share of mice” value was 0%. In addition, the “GFAP score 5, share of mice” value in data set [2] came to 0%.
`C[N+](C)(C)CCOP(=O)([O-])OP(=O)(O)OC[C@H]1O[C@@H](n2ccc(N)nc2=O)C(O)C1O` (stereo partly drawn) [Citicoline, citidin-5′-difosfocholine]: the “apoptosis in GCL retinal layer (TUNEL)” value in data set [1] is given as “lower apoptosis rate with respect to the diabetic mice treated with the vehicle”. The “elimination of the marked products” value in data set [3] is listed as 16%. In data set [4], the “latency time of VEP” value is “decrease in latency time of VEP” and the “width of PERG signal” value is listed as “improvement in the width of PERG signal”. In the data set with glaucomatous patients [5] (citicoline in oral solution), the “increase of the width of P50-N95 tract of pERG” value is 100%. The “loss of nervous fibres at the retinal layer through GDX” value in the data set with glaucomatous patients [5] (oral solution 500 mg/die, vs antihypertensive therapy only) is given as “slows down the loss of nervous fibres at the retinal layer”. In data set [2], the “GFAP score 1, share of mice” value is recorded as 71%; the “GFAP score 2, share of mice” value is 22%; the “GFAP score 3, share of mice” value is on record as 7%; the “GFAP score 4, share of mice” value is 0%. For the same compound, the “GFAP score 5, share of mice” value in data set [2] amounted to 0%. In the data set with glaucomatous patients [6], the “perimetric defect (areas of not perception)” value is recorded as “reduction of the perimetric defect”.
